Where a name gives a salt, the structure may show the parent alone.

Consider 21 compounds from patent US8404713B2, “Quinolinone derivatives as PARP inhibitors” (Janssen Pharmaceutica NV, priority 2007, dated 2013).

For data set [1], the target named is T1, TANK-2 enzyme (Homo sapiens, UniProt Q9H2K2).
T1 construct: made in house
T1 sequence (Q9H2K2 1-1166): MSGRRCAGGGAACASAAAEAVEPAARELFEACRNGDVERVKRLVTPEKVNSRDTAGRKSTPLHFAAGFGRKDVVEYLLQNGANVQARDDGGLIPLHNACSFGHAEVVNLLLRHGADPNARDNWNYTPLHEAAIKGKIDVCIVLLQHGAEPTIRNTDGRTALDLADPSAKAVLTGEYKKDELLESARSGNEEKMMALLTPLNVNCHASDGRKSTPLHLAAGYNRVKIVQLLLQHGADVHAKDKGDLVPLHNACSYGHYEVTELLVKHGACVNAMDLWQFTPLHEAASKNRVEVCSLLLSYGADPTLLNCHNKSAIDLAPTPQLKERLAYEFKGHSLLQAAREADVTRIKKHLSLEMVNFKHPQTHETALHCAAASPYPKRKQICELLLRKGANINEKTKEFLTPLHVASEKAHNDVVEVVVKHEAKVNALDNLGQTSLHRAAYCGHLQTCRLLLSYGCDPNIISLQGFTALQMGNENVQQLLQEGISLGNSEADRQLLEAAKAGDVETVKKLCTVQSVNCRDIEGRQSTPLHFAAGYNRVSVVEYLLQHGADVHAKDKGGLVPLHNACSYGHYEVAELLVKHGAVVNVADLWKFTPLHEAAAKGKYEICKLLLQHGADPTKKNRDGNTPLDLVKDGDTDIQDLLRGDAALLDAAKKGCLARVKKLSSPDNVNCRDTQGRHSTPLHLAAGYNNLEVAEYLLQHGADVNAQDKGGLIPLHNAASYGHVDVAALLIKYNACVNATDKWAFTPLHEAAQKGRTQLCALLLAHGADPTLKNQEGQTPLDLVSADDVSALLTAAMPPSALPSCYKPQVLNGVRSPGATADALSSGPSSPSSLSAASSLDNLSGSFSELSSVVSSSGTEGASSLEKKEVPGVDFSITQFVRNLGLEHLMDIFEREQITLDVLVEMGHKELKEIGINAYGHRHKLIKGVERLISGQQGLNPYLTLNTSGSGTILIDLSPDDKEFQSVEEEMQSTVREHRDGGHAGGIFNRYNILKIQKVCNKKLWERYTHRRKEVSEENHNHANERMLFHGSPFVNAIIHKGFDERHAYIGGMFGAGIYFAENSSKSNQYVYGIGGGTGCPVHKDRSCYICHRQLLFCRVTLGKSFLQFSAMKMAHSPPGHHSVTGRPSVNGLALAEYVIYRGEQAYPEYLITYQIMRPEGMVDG
Kind of data set: In vitro scintillation proximity assay (SPA) for TANK-2 inhibitory activity. The format is biochemical. The settings on record: auto-poly(ADP-ribosyl)ation, Ni flash plates; 96-well results if available, otherwise 384-well; tested between 10^-5 M and 3x10^-8 M; read-out: in vitro SPA assay TANK-2 pIC50 (converted). The protocol:
C.2. In Vitro Scintillation Proximity Assay (SPA) for TANK-2 Inhibitory Activity
Compounds of the present invention were tested in an in vitro assay based on SPA technology with Ni Flash plates (96 or 384 well).
In principle, the assay relies upon SPA technology for the detection of auto-poly(ADP-ribosyl)ation of TANK-2 protein using [^3H]-nicotinamide adenine dinucleotide ([^3H]-NAD^+) as ADP-ribosyl donor.
A stock solution of 100 nM [^3H]-NAD^+/NAD (0.1 mCi/ml, supplier: Perkin Elmer) and 0.25 mM NAD (Sigma) was made in assay buffer (60 mM Tris/HCl, pH 7.4; 0.9 mM DTT; 6 mM MgCl2). The TANK-2 enzyme was produced as described in EP1238063. 60 μl of assay buffer, together with 1 μl of compound in DMSO, 20 μl of [^3H]-NAD^+/NAD and 20 μl of TANK-2 enzyme (final concentration 8 μg/ml) was added per well into a 96-well Ni-coated flash plate (Perkin Elmer). After incubation of the mixture for 120 min. at room temperature, the reaction was terminated by adding 60 μl of stopsolution (42.6 mg NAD in 6 ml H2O). The plates were covered with a plate sealer and placed in a TopCountNX™ (Packard) for scintillation counting. Values were expressed as counts per minute (cpm). For each experiment, controls (containing TANK-2 enzyme and DMSO without compound), a blank incubation (containing DMSO but no TANK-2 enzyme or compound) and samples (containing TANK-2 enzyme and compound dissolved in DMSO) were run in parallel. All compounds tested were dissolved and eventually further diluted in DMSO. […] In each test, the blank value was subtracted from both the control and the sample values. The control sample represented maximal TANK-2 enzyme activity. For each sample, the amount of cpm was expressed as a percentage of the mean cpm value of the controls. When appropriate, IC50-values (concentration of the drug, needed to reduce the TANK-2 enzyme activity to 50% of the control) were computed using linear interpolation between the experimental points just above and below the 50% level. Herein the effects of test compounds are expressed as pIC50 (the negative log value of the IC50-value). As reference compounds, 3-aminobenzamide and 4-amino-1,8-naphtalimide were included to validate the SPA assay. Herein the assay was described using 96-well plates. In the assay using 384-well plates the same final concentrations were used and volumes were adapted.

Data set [2] has as its target T2, Human PARP-1 enzyme (Homo sapiens, UniProt P09874).
T2 construct: purchased Trevigen
Kind of data set: In vitro scintillation proximity assay (SPA) for PARP-1 inhibitory activity. The format is biochemical. The settings on record: nicked DNA activated PARP-1, [3H]-NAD+, biotinylated histones; tested between 10^-5 M and 3x10^-9 M; read-out: in vitro SPA assay PARP-1 pIC50 (converted). The procedure:
C.1. In Vitro Scintillation Proximity Assay (SPA) for PARP-1 Inhibitory Activity
Compounds of the present invention were tested in an in vitro assay based on SPA technology (proprietary to GE healthcare).
In principle, the assay relies upon the well established SPA technology for the detection of poly(ADP-ribosyl)ation of biotinylated target proteins, i.e histones. This ribosylation is induced using nicked DNA activated PARP-1 enzyme and [^3H]-nicotinamide adenine dinucleotide ([^3H]-NAD^+) as ADP-ribosyl donor.
Histones (type II-A, supplier: Sigma) were biotinylated using the biotinylation kit of Amersham and stored aliquoted at −20° C. A stock solution of 100 mg/ml SPA poly(vinyl toluene) (PVT) beads (supplier: Amersham) was made in PBS. A stock solution of 61.6 nM [^3H]-NAD^+ was made by adding [^3H]-NAD^+ (0.1 mCi/ml, supplier: Perkin Elmer) to incubation buffer (50 mM Tris/HCl, pH 8; 0.2 mM DTT; 4 mM MgCl2). A solution of 4 mM NAD^+ (supplier: Sigma) was made. Human PARP-1 enzyme was obtained from Trevigen. Biotinylated histones and PVT-SPA beads were mixed and pre-incubated for 30 min. at room temperature. PARP-1 enzyme (concentration was lot dependent) was mixed with the nicked DNA and the mixture was pre-incubated for 30 min. at 4° C. Equal parts of this histones/PVT-SPA beads solution and PARP-1 enzyme/DNA solution were mixed and 75 μl of this mixture together with 1 μl of compound in DMSO and 25 μl of [^3H]-NAD^+ was added per well into a 96-well microtiterplate. The final concentrations in the incubation mixture were 2 μg/ml for the biotinylated histones, 2 mg/ml for the PVT-SPA beads, 0.25 μg/ml for the nicked DNA and between 0.1-0.2 μg/ml for the PARP-1 enzyme. After incubation of the mixture for 20 min. at room temperature, the reaction was terminated by adding 100 μl of 4 mM NAD^+ in water (final concentration 2 mM) and plates were mixed. The beads were sedimented by centrifugation (10 min, 800 rpm). and plates transferred to a TopCountNXT™ (Packard) for scintillation counting, values were expressed as counts per minute (cpm). For each experiment, controls (containing PARP-1 enzyme and DMSO without compound), a blank incubation (containing DMSO but no PARP-1 enzyme, no DNA or compound) and samples (containing PARP-1 enzyme, DNA and compound dissolved in DMSO) were run in parallel. All compounds tested were dissolved and eventually further diluted in DMSO. A dose-response curve was made wherein the compounds were tested at concentrations between 10^−5M and 3×10^−9M. In each test, the blank value was subtracted from both the control and the sample values. The control sample represented maximal PARP-1 enzyme activity. For each sample, the amount of cpm was expressed as a percentage of the mean cpm value of the controls. When appropriate, IC50-values (concentration of the drug, needed to reduce the PARP-1 enzyme activity to 50% of the control) were computed using linear interpolation between the experimental points just above and below the 50% level. Herein the effects of test compounds are expressed as pIC50 (the negative log value of the IC50-value). As a reference compound, 4-amino-1,8-naphthalimide was included to validate the SPA assay.

T2 sequence (P09874 whole entry): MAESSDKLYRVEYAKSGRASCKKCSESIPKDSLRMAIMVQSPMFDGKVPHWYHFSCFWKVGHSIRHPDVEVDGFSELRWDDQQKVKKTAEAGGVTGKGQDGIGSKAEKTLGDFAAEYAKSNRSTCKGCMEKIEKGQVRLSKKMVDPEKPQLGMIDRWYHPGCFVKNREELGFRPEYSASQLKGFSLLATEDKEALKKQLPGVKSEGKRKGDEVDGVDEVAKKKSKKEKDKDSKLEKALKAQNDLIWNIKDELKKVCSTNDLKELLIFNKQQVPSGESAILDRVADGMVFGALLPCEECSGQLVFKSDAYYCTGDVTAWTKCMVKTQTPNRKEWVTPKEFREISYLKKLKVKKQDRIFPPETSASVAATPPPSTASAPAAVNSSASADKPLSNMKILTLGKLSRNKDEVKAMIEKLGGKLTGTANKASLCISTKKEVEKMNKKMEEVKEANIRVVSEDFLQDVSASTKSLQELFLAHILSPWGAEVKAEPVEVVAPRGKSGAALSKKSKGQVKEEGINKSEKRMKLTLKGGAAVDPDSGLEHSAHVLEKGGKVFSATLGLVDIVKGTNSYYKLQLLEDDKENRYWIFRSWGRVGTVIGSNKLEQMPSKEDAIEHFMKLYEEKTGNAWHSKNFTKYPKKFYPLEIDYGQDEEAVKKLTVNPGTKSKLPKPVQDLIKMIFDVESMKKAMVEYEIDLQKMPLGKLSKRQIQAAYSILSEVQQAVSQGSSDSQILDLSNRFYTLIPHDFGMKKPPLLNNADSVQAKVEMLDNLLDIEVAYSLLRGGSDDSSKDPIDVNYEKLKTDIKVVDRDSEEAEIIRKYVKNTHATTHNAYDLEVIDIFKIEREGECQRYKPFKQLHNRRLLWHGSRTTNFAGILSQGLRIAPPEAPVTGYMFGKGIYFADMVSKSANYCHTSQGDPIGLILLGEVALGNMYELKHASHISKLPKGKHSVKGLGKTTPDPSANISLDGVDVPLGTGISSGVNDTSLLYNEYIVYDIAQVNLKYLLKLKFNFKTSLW

Take `CCc1cc2c(OC)cc(CN3CCN(c4ccccc4OC)CC3)cc2[nH]c1=O` [Compound 64]: the melting point was 80 °C. Besides, the IC50 in data set [1] was 4470 nM. In data set [2], the IC50 is 3.02 nM.

As for `CCc1cc2ccc(CN3CCN(c4ccccn4)CC3)cc2[nH]c1=O` [Compound 2], the melting point stood at 252 °C. Moreover, the IC50 in data set [1] is 687 nM. Besides, the IC50 in data set [2] is 0.605 nM.

Take `CCc1cc2ccc(C(O)CN3CCOCC3)cc2[nH]c1=O` (centres unmarked) [Compound 4]: the melting point came out at 163 °C. Further, the IC50 in data set [1] is 225 nM. Moreover, the IC50 in data set [2] was 201 nM.

As to `CCc1cc2ccc(CCCN3CCN(c4ccc(C#N)cn4)CC3)cc2[nH]c1=O` (as salt: HCl) [Compound 8], the melting point was found to be 174 °C.

`CCc1cc2ccc(CN3CCC(c4ccccc4)CC3)cc2[nH]c1=O` [Compound 3] showed a melting point of 184 °C. Moreover, the IC50 in data set [1] was 5450 nM. Moreover, in data set [2], the IC50 was 1.24 nM.

In turn, `Cc1cc2ccc(C(C)N3CCCC3)cc2[nH]c1=O` (centres unmarked) [Compound 68] came in with a melting point of 133 °C. Further, the IC50 in data set [1] is 2140 nM. In addition, the IC50 in data set [2] is 0.759 nM.

Consider `CCc1cc2ccc(C(=O)N3CCc4ccccc4C3)cc2[nH]c1=O` [Compound 10], for which the melting point came to 255 °C. For the same compound, in data set [1], the IC50 is 454 nM. In addition, in data set [2], the IC50 is 108 nM.

Compound `CCc1cc2ccc(CNCCc3c[nH]c4ccccc34)cc2[nH]c1=O` [Compound 1] returned a melting point of 155 °C. Besides, the IC50 in data set [1] was 1440 nM. Further, the IC50 in data set [2] was 13.4 nM.

In turn, `CCOC(=O)c1cnc(N2CCN(Cc3ccc4cc(CC)c(=O)[nH]c4c3)CC2)nc1` [Compound 11] yielded a melting point of 235 °C. Besides, the IC50 in data set [1] is 36.1 nM. The IC50 in data set [2] is 51.3 nM.

As to `COc1ccccc1N1CCN(Cc2ccc3cc(C)c(=O)[nH]c3c2)CC1` [Compound 23], the melting point turned out to be 198 °C. Further, the IC50 in data set [1] is > 10000 nM. Besides, the IC50 in data set [2] was 0.251 nM.

Turning to `CCc1cc2ccc(C(C)NCCc3c[nH]c4ccccc34)cc2[nH]c1=O` (centres unmarked) [Compound 14], the melting point was found to be 170 °C. Further, in data set [1], the IC50 is 428 nM. In data set [2], the IC50 was 70.1 nM.

`CCc1cc2ccc(C(C(C)C)N3CCN(c4ccc(C#N)cn4)CC3)cc2[nH]c1=O` (centres unmarked) [Compound 13] displayed a melting point of 135 °C. The IC50 in data set [1] is 269 nM. Moreover, the IC50 in data set [2] was 3.94 nM.

On to `CCc1cc2ccc(CN3CCN(c4ncc(C(N)=O)cn4)CC3)cc2[nH]c1=O` [Compound 16], for which the melting point was > 250 °C. Besides, in data set [1], the IC50 was 36.2 nM. Further, the IC50 in data set [2] was 7.4 nM.

`Cc1cc2ccc(C(C)N3CCN(c4ccccc4C#N)CC3)cc2[nH]c1=O` (centres unmarked) [Compound 20] showed a melting point of 190 °C. Besides, the IC50 in data set [1] was 940 nM. Also, in data set [2], the IC50 is 1.08 nM.

`CCc1cc2ccc(C(CO)N3CCC(Cc4ccccc4)CC3)cc2[nH]c1=O` (centres unmarked) [Compound 9] gave a melting point of 172 °C. In addition, the IC50 in data set [1] is 3100 nM. Besides, the IC50 in data set [2] was 109 nM.

`Cc1cc2ccc(CN3CCC(c4ccccc4)CC3)cc2[nH]c1=O` [Compound 7] came in with a melting point of 225 °C. For the same compound, the IC50 in data set [1] is > 10000 nM. Further, the IC50 in data set [2] is 1.52 nM.

Regarding `CCc1cc2ccc(CN3CCN(CCOC)CC3)cc2[nH]c1=O` [Compound 27], the IC50 in data set [1] is 3960 nM; in data set [2], 65 nM.

Turning to `CCc1cc2ccc(CN3CCN(c4ccccc4Cl)CC3)cc2[nH]c1=O` [Compound 18], the values for the IC50 in data set [1] and in data set [2] were 1930 nM and 0.566 nM, respectively.

As to `CCc1cc2ccc(CN3CCc4ccccc4C3)cc2[nH]c1=O` [Compound 29], the IC50 was 424 nM in data set [1] and 20 nM in data set [2].

With `CCc1cc2ccc(CN3CCN(c4ccc(Cl)c(Cl)c4)CC3)cc2[nH]c1=O` [Compound 43], the figures for the IC50 in data set [1] and in data set [2] were 1720 nM and 2.58 nM, respectively.

On to `Cc1cc2ccc(C(C)N3CCN(c4ccccc4Cl)CC3)cc2[nH]c1=O` (centres unmarked) [Compound 76], for which the IC50 was 1550 nM in data set [1] and 0.646 nM in data set [2].
